Assay results taken from patent publication US20230203081A1, “LINCOSAMIDE ANTIBIOTICS AND USES THEREOF” (President and Fellows of Harvard College, priority 2020, published 2023).
Read-outs that look alike come from different tables or passages of the source.

Columns and labels:
Assay type in all cases: cell-based
E. coli armA = assay: microbe, parasite or virus in culture; conditions: Escherichia coli
How it was run: (§1)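 Isolates other than streptococci and anaerobes, which had their own procedures, were grown overnight at 35° C on tryptic soy agar with 5% sheep blood. Suspensions were then diluted to a final inoculum of 5×10^5 CFU/mL in broth microdilution wells.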

E. coli ΔTolC = assay: microbe, parasite or virus in culture; conditions: Escherichia coli
How it was run: as §1

S. aureus MP-549 msrA = assay: microbe, parasite or virus in culture; conditions: Staphylococcus aureus, MP549MSRA
How it was run: as §1

[1] = test system: broad panel of different clinical isolates; assay: microbe, parasite or virus in culture
How it was run: as §1

S. aureus BAA 977 iErmA = assay: microbe, parasite or virus in culture; conditions: Staphylococcus aureus
How it was run: as §1

S. pneumoniae ATCC 6303 = assay: MIC (broth microdilution or agar dilution, CLSI)
How it was run: as §1

[2] = test system: S. pneumoniae MMX 3028 cErmB; assay: MIC (broth microdilution or agar dilution, CLSI)
How it was run: as §1

[3] = test system: S. pyogenes MMX 946; cErmB; assay: MIC (broth microdilution or agar dilution, CLSI); conditions: for MIC: cErmB
How it was run: as §1

K. oxytoca Clinical = assay: MIC (broth microdilution or agar dilution, CLSI)
How it was run: as §1

E. coli LptD = assay: MIC (broth microdilution or agar dilution, CLSI); conditions: Escherichia coli, read-out: MIC
How it was run: as §1

S. aureus ATCC 700699 = assay: MIC (broth microdilution or agar dilution, CLSI); conditions: Staphylococcus aureus, read-out: MIC
How it was run: as §1

S. pneumoniae ATCC 49619 = assay: MIC (broth microdilution or agar dilution, CLSI); conditions: Streptococcus pneumoniae, ATCC49619, S. pneumoniae HAV#003, ATCC 49619; read-out: MIC
How it was run: as §1

S. aureus ATCC 29213 = assay: MIC (broth microdilution or agar dilution, CLSI); conditions: Staphylococcus aureus, read-out: MIC
How it was run: as §1

[4] = test system: S. pneumoniae MMX 3031 cMefA; assay: MIC (broth microdilution or agar dilution, CLSI); conditions: Streptococcus pneumoniae, MMX3031CMEFA, read-out: MIC
How it was run: as §1

S. aureus hVISA = assay: MIC (broth microdilution or agar dilution, CLSI)
How it was run: as §1

K. pneumoniae ATCC 10031 = assay: MIC (broth microdilution or agar dilution, CLSI); conditions: Klebsiella pneumoniae, ATCC10031, K. pneumoniae HAV#008, ATCC 10031; read-out: MIC
How it was run: as §1

[5] = test system: S. aureus ATCC BAA-1707 (MRSA); assay: MIC (broth microdilution or agar dilution, CLSI)
How it was run: as §1

E. faecalis ATCC 29212 = assay: MIC (broth microdilution or agar dilution, CLSI); conditions: Enterococcus faecalis, read-out: MIC
How it was run: as §1

S. pyogenes ATCC 19615 = assay: MIC (broth microdilution or agar dilution, CLSI); conditions: Streptococcus pyogenes, read-out: MIC
How it was run: as §1

CSC1O[C@H]([C@H](NC(=O)[C@H]2NC[C@@H]3C[C@H](CC(C)C)CCO[C@H]32)[C@H](C)Cl)C(O)[C@@H](O)[C@H]1O (stereo partly drawn) [FSA-513018b]
0.03 mg/L: MIC ([1]; Staphylococcus aureus, S. aureus HAV#214, Clinical) | MIC (S. pneumoniae ATCC 6303; S. pneumoniae HAV#351, ATCC 6303) | MIC (S. pneumoniae ATCC 6303; Streptococcus pneumoniae, ATCC6303, S. pneumoniae ATCC 6303, read-out: MIC) | MIC ([4]; S. pneumoniae HAV#034, MMX 3031, cMefA) | MIC (S. pyogenes ATCC 19615; ATCC19615, S. pyogenes HAV#004, ATCC 19615)
0.015 mg/L: MIC (S. pneumoniae ATCC 49619)
8 mg/L: MIC (E. coli armA; E. coli HAV#056, Clinical, armA) | MIC (E. coli armA; E. coli armA) | MIC ([1]; Acinetobacter baumannii, A. baumannii HAV#652 Clinical) | MIC ([1]; Acinetobacter baumannii, A. baumannii HAV#654, Clinical) | MIC ([1]; Acinetobacter baumannii, A. baumannii HAV#655, Clinical) | MIC ([1]; Acinetobacter baumannii, A. baumannii HAV#659, Clinical) | MIC ([1]; Acinetobacter baumannii, A. baumannii HAV#661, Clinical) | MIC ([1]; Acinetobacter baumannii, A. baumannii HAV#662, Clinical) | MIC ([1]; Escherichia coli, E. coli HAV#501, Clinical) | MIC ([1]; Escherichia coli, E. coli HAV#503, Clinical) | MIC ([1]; Escherichia coli, E. coli HAV#512, Clinical) | MIC ([1]; Escherichia coli, E. coli HAV#514, Clinical) | MIC ([1]; Escherichia coli, E. coli HAV#516, ESBL-producing) | MIC ([1]; Staphylococcus epidermidis, S. epidermidis HAV# 275 Clinical, cfr) | MIC (K. oxytoca Clinical; K. oxytoca HAV#450, Clinical) | MIC (K. oxytoca Clinical; Klebsiella oxytoca, K. oxytoca Clinical, read-out: MIC)
1 mg/L: MIC ([1]; Enterococcus faecium, E. faecium HAV#324, Clinical) | MIC ([1]; Enterococcus faecium, E. faecium HAV#328, Clinical) | MIC ([1]; Enterococcus faecium, E. faecium HAV#329, Clinical) | MIC ([1]; Staphylococcus aureus, VISA, S. aureus HAV#203, Clinical (VISA)) | MIC (E. coli LptD; E. coli HAV#040, LptD) | MIC (E. coli LptD; E. coli LptD) | MIC (S. aureus hVISA; S. aureus HAV#204, hVISA) | MIC (S. aureus hVISA; Staphylococcus aureus, S. aureus hVISA, read-out: MIC)
≥ 1,000 ×: MIC lower than that of clindamycin (fold) ([2]; S. pneumoniae, c-ermB-mediated resistance) | MIC lower than that of clindamycin (fold) ([3]; S. pyogenes, c-ermB-mediated resistance)
> 16 mg/L: MIC ([1]; Staphylococcus epidermidis, S. epidermidis HAV# 276, cfr)
16 mg/L: MIC ([1]; Acinetobacter baumannii, A. baumannii HAV#656, Clinical) | MIC ([1]; Acinetobacter baumannii, A. baumannii HAV#660, Clinical) | MIC ([1]; Acinetobacter baumannii, A. baumannii HAV#664, Carbapenem R) | MIC ([1]; Escherichia coli, E. coli HAV#513, Clinical) | MIC ([1]; K. pneumnoniae HAV#402, FQ-R) | MIC ([1]; Klebsiella pneumoniae, K. pneumoniae HAV#402, FQ-R) | MIC ([1]; Klebsiella pneumoniae, K. pneumoniae HAV#405, Clinical) | MIC ([1]; Klebsiella pneumoniae, K. pneumoniae HAV#409, ESBL-producing) | MIC ([1]; Staphylococcus epidermidis, S. epidermidis HAV#277, Line R)
64 mg/L: MIC ([1]; Klebsiella pneumoniae, K. pneumoniae HAV#406, Clinical)
2 mg/L: MIC ([1]; Enterococcus faecalis, E. faecalis HAV#607, Clinical) | MIC ([1]; Enterococcus faecalis, E. faecalis HAV#609, Clinical) | MIC ([1]; Staphylococcus aureus, S. aureus HAV#211, Clinical) | MIC ([1]; Staphylococcus aureus, S. aureus HAV#216, Clinical, cfr) | MIC (S. aureus BAA 977 iErmA; BAA-977 / MRSA, 24 h) | MIC (S. aureus ATCC 700699; ATCC700699, S. aureus ATCC 700699) | MIC (S. aureus ATCC 700699; S. aureus HAV#202, ATCC 700699 (VISA))
4 mg/L: MIC ([1]; Acinetobacter baumannii, A. baumannii HAV#651, Clinical) | MIC ([1]; Acinetobacter baumannii, A. baumannii HAV#653, Clinical) | MIC ([1]; Acinetobacter baumannii, A. baumannii HAV#657, Clinical) | MIC ([1]; Acinetobacter baumannii, A. baumannii HAV#658, Clinical) | MIC ([1]; Acinetobacter baumannii, A. baumannii HAV#663, Clinical) | MIC ([1]; Escherichia coli, E. coli HAV#511, Clinical)
0.125 mg/L: MIC ([1]; Enterococcus faecalis, E. faecalis HAV#611, Line R & Vanco R) | MIC ([1]; Enterococcus faecalis, S. faecalis 5060, Line R & Vanco R) | MIC ([1]; Neisseria gonorrhoeae, N. gonorrhoeae HAV#701, Clinical) | MIC ([1]; Neisseria gonorrhoeae, N. gonorrhoeae HAV#702, Clinical) | MIC ([1]; Staphylococcus aureus, MRSA, S. aureus HAV#218, Line R) | MIC ([1]; Staphylococcus epidermidis, S. epidermidis HAV#279, Line R) | MIC ([1]; Staphylococcus haemolyticus, S. haemolyticus HAV#252, Line R & Methicillin R) | MIC ([1]; Streptococcus pneumoniae, ATCCBAA255, S. pneumoniae HAV#354, ATCC-BAA-255) | MIC ([1]; Streptococcus pneumoniae, ATCCBAA334, S. pneumoniae HAV#353, ATCC-BAA-334) | MIC ([1]; Streptococcus pneumoniae, S. pneumoniae HAV#358, Clinical)
0.5 mg/L: MIC (E. coli ΔTolC; E. coli HAV#038, ΔTolC) | MIC (E. coli ΔTolC; E. coli ΔTolC) | MIC ([1]; Haemophilus influenzae, ATCC9007, H. influenzae HAV#376, ATCC-9007) | MIC ([1]; Streptococcus pneumoniae, ATCC700673, S. pneumoniae HAV#352, ATCC 700673, MDR)
128 mg/L: MIC ([1]; Klebsiella pneumoniae, K. pneumoniae HAV#407, Clinical) | MIC ([1]; Klebsiella pneumoniae, K. pneumoniae HAV#408, Clinical)
≤ 0.06 mg/L: MIC (S. aureus MP-549 msrA; S. aureus MP-549 msrA) | MIC ([1]; Enterococcus faecalis, E. faecalis HAV#602, Clincal) | MIC ([1]; Enterococcus faecalis, E. faecalis HAV#612, Line R) | MIC ([1]; Enterococcus faecalis, S. faecalis 5074, Line R) | MIC ([1]; Enterococcus faecium, VRE, E. faecium HAV#319, Line R & Vanco R) | MIC (S. aureus BAA 977 iErmA; BAA977) | MIC (S. aureus ATCC 29213; ATCC29213, S. aureus ATCC 29213) | MIC ([4]; S. pneumoniae MMX 3031 cMefA) | MIC (E. faecalis ATCC 29212; ATCC29212, E. faecalis ATCC 29212) | MIC (S. pyogenes ATCC 19615; ATCC19615, S. pyogenes ATCC 19615)
0.25 mg/L: MIC ([1]; Enterococcus faecium, E. faecium HAV#317, Clinical) | MIC ([1]; Enterococcus faecium, VRE, E. faecium HAV#320, Clinical) | MIC ([1]; Enterococcus faecium, VRE, E. faecium HAV#326, Clinical) | MIC ([1]; Streptococcus pneumoniae, S. pneumoniae HAV#356, Clinical) | MIC ([2]; S. pneumoniae HAV#033, MMX 3028, cErmB) | MIC ([2]; Streptococcus pneumoniae, MMX3028CERMB, S. pneumoniae MMX 3028 cErmB, read-out: MIC) | MIC ([3]; S. pyogenes HAV#035, MMX 946, mac-resistant) | MIC ([3]; Streptococcus pyogenes, S. pyogenes MMX 946, read-out: MIC) | MIC (K. pneumoniae ATCC 10031)
> 128 mg/L: MIC ([1]; Staphylococcus aureus, MRSA, S. aureus HAV#220, Line R) | MIC ([1]; Staphylococcus aureus, MSSA, S. aureus HAV#219, Line R)
32 mg/L: MIC ([1]; Klebsiella pneumoniae, K. pneumoniae HAV#041, Clinical, KPC) | MIC ([1]; Klebsiella pneumoniae, K. pneumoniae HAV#404, Clinical) | MIC ([1]; Staphylococcus epidermidis, S. epidermidis HAV#278 Line R)
0.06 mg/L: MIC (S. aureus MP-549 msrA; S. aureus HAV#032, MP-549, MSR(A)) | MIC ([1]; Enterococcus faecium, E. faecium HAV#327, Clinical) | MIC ([1]; Enterococcus faecium, E. faecium HAV#604, Clinical) | MIC ([1]; Staphylococcus aureus, S. aureus HAV#212, Clinical) | MIC ([1]; Staphylococcus aureus, S. aureus HAV#213, Clinical) | MIC ([1]; Staphylococcus aureus, S. aureus HAV#215, Clinical) | MIC ([1]; Staphylococcus haemolyticus, S. haemolyticus 5052, Line R & Methicillin R) | MIC (S. aureus BAA 977 iErmA; BAA-977 / MRSA) | MIC (S. aureus ATCC 29213; ATCC29213, S. aureus HAV#001, ATCC 29213, MP-549) | MIC ([5]; S. aureus HAV#016, ATCC BAA-1707, MRSA) | MIC ([5]; Staphylococcus aureus, S. aureus ATCC BAA-1707 (MRSA), read-out: MIC) | MIC (E. faecalis ATCC 29212; ATCC29212, E. faecalis HAV#005, ATCC 29212)
≤ 0.03 mg/L: MIC ([1]; Staphylococcus aureus, S. aureus HAV#051, mecA, norA, spcl, ermA, aad1, aac6′-aph2″) | MIC ([1]; Staphylococcus aureus, S. aureus HAV#052, mecA, norA, fosB, blaZ) | MIC ([1]; Staphylococcus aureus, S. aureus HAV#053 mecA, norA, fosB)
